This note sets out measurements from ChEMBL document CHEMBL4665887, “Identification, Structure-Activity Relationships of Marine-Derived Indolocarbazoles, and a Dual PKCθ/δ Inhibitor with Potent Antipancreatic Cancer Efficacy” (J Med Chem, 2020).

Activity calls are given as the source filed them. The calls are words filed in the database; no cut-off is given here.

Test [1] has as its system BXPC-3. In words: Induction of apoptosis in human BXPC-3 cells assessed as increase in cleaved caspase-3 level at 0.25 uM incubated for 30 mins by Western blot analysis. In kind it is functional, cell-based. (In western blotting, separated proteins are transferred to a membrane and probed.)
The target of test [2] is Protein kinase C theta type (Homo sapiens, UniProt Q04759). Put plainly: Inhibition of PKCtheta phosphorylation at T538 residue in human BXPC-3 cells at 0.25 uM incubated for 4 hrs by Western blot analysis. In kind it is cell-based.
The test system of test [3] is BXPC-3. In words: Induction of apoptosis in human BXPC-3 cells assessed as increase in cleaved caspase-9 level at 0.25 uM incubated for 30 mins by Western blot analysis. In kind it is functional, cell-based.
In test [4] the target is Protein kinase C iota type/zeta type (Homo sapiens) (UniProt P41743+Q05513). In words: Inhibition of PKCzeta/lambda phosphorylation at T410/T403 residue in human BXPC-3 cells at 1 uM incubated for 4 hrs by Western blot analysis. In kind it is cell-based.
Test [5] deals with BXPC-3. Put plainly: Induction of apoptosis in human BXPC-3 cells assessed as increase in cleaved PARP level at 0.25 uM incubated for 30 mins by Western blot analysis. In kind it is functional, cell-based.
In test [6] the test system is BXPC-3. Put plainly: Antitumor activity against patient-derived pancreatic cancer cells xenografted in BALB/c mouse model of patient-derived xenograft assessed as reduction in p-PKCdelta protein levels at 6 mg/kg, iv dosed once every 2 days for 18 days by Western blot analysis. In kind it is functional, organism-based. The following applies: Homo sapiens, time 18.0 day.

The subject of test [7] is BXPC-3. Put plainly: Reduction in Bcl-XL protein expression in human BXPC-3 cells incubated for 24 hrs by Western blot analysis. In kind it is functional, cell-based.
The target of test [8] is Inhibitor of nuclear factor kappa-B kinase subunit alpha (Homo sapiens) (UniProt O15111). In words: Inhibition of IKKalpha phosphorylation in human BXPC-3 cells at 0.5 uM measured within 1 hr by Western blot analysis. In kind it is cell-based. As to conditions: time hrs <=1.
Test [9] deals with PKC alpha and beta-2 (Homo sapiens) (UniProt P17252+P05771). Put plainly: Inhibition of PKCalpha/beta II phosphorylation at T638/T641 residue in human BXPC-3 cells at 1 uM incubated for 4 hrs by Western blot analysis. In kind it is cell-based.
Test [10] deals with BXPC-3. Put plainly: Induction of apoptosis in human BXPC-3 cells assessed as increase in cleaved caspase-7 level at 0.25 uM incubated for 30 mins by Western blot analysis. In kind it is functional, cell-based.
Test [11] deals with BXPC-3. In words: Antitumor activity against patient-derived pancreatic cancer cells xenografted in BALB/c mouse model of patient-derived xenograft assessed as increase in cleaved caspase- levels at 6 mg/kg, iv dosed once every 2 days for 18 days by Western blot analysis. In kind it is functional, organism-based. As to conditions: Homo sapiens, time 18.0 day. On the technique in general: A xenograft is tissue or cells of one species grown in another, often human tumour cells in immunodeficient mice.

Test [12] deals with Protein kinase C beta type (Homo sapiens) (UniProt P05771). Put plainly: Inhibition of PKCbeta phosphorylation at S660 residue in human BXPC-3 cells at 1 uM incubated for 4 hrs by Western blot analysis. In kind it is cell-based.
Test [13] shares this target. Put plainly: Inhibition of PKC(pan)/beta II phosphorylation at S660 residue in human BXPC-3 cells at 1 uM incubated for 4 hrs by Western blot analysis. In kind it is cell-based.
For test [14], the system named is BXPC-3. Put plainly: Induction of apoptosis in human BXPC-3 cells incubated for 24 hrs by PI and annexin V-FITC staining based flow cytometry. In kind it is functional, cell-based. In general terms: In flow cytometry, cells or beads pass a laser one at a time.
Test [15] deals with Protein kinase C iota type (Homo sapiens) (UniProt P41743). In words: Inhibition of PKClambda phosphorylation in human BXPC-3 cells at 1 uM incubated for 4 hrs by Western blot analysis. In kind it is cell-based.
In test [16] the target is Transcription factor p65 (Homo sapiens) (UniProt Q04206). In words: Inhibition of p65 phosphorylation in human BXPC-3 cells at 0.5 uM measured within 1 hr by Western blot analysis. As to conditions: time hrs <=1. In kind it is cell-based.
The test system of test [17] is BXPC-3. Put plainly: Reduction in Bcl-2 protein expression in human BXPC-3 cells incubated for 24 hrs by Western blot analysis. In kind it is functional, cell-based.
The target of test [18] is NF-kappa-B inhibitor alpha (Homo sapiens) (UniProt P25963). Put plainly: Inhibition of IkappaB-alpha phosphorylation in human BXPC-3 cells at 0.5 uM measured within 1 hr by Western blot analysis. In kind it is cell-based. The following applies: time hrs <=1.
The test system of test [19] is BXPC-3. Put plainly: Reduction in Mcl1 protein expression in human BXPC-3 cells incubated for 24 hrs by Western blot analysis. In kind it is functional, cell-based.
Test [20] deals with BXPC-3. In words: Antitumor activity against patient-derived pancreatic cancer cells xenografted in BALB/c mouse model of patient-derived xenograft assessed as increase in cleaved caspase-3 levels at 6 mg/kg, iv dosed once every 2 days for 18 days by Western blot analysis. As to conditions: Homo sapiens, time 18.0 day. In kind it is functional, organism-based.
For test [21], the system named is BXPC-3. In words: Antitumor activity against patient-derived pancreatic cancer cells xenografted in BALB/c mouse model of patient-derived xenograft assessed as increased numbers of necrotic cells at 6 mg/kg, iv dosed once every 2 days for 18 days by H and E staining based analysis relative to control. In kind it is functional, organism-based. The following applies: Homo sapiens, time 18.0 day.

Test [22] concerns the target Inhibitor of nuclear factor kappa-B kinase subunit beta (Homo sapiens) (UniProt O14920). In words: Inhibition of IKKbeta phosphorylation in human BXPC-3 cells at 0.5 uM measured within 1 hr by Western blot analysis. In kind it is cell-based. As to conditions: time hrs <=1.
The subject of test [23] is BXPC-3. In words: Reduction in XIAP protein expression in human BXPC-3 cells incubated for 24 hrs by Western blot analysis. In kind it is functional, cell-based.
Test [24] has as its target Protein kinase C alpha type (Homo sapiens) (UniProt P17252). Put plainly: Inhibition of PKCalpha phosphorylation in human BXPC-3 cells at 1 uM incubated for 4 hrs by Western blot analysis. In kind it is cell-based.
Test [25] addresses Protein kinase C zeta type (Homo sapiens) (UniProt Q05513). Put plainly: Inhibition of PKCzeta phosphorylation in human BXPC-3 cells at 1 uM incubated for 4 hrs by Western blot analysis. In kind it is cell-based.
Test [26] deals with Protein kinase C delta type (Homo sapiens, UniProt Q05655). Put plainly: Inhibition of PKCdelta phosphorylation at T505 residue in human BXPC-3 cells at 1 uM incubated for 4 hrs by Western blot analysis. In kind it is cell-based.
The next test concerns PC-9. Put plainly: Cytotoxicity in human PC-9 cells assessed as reduction in cell viability incubated for 24 hrs by CCK8 assay. As to conditions: PC-9, 24 h. In kind it is functional, cell-based.
The next test concerns MGC-803. In words: Cytotoxicity in human MGC-803 cells assessed as reduction in cell viability incubated for 24 hrs by CCK8 assay. In kind it is functional, cell-based. The following applies: MGC-803, 24 h.
The subject of the next test is ASPC1. In words: Cytotoxicity in human ASPC1 cells assessed as reduction in cell viability incubated for 24 hrs by CCK8 assay. In kind it is functional, cell-based. As to conditions: ASPC1, 24 h.
For the next test, the system named is NCI-H1975. Put plainly: Cytotoxicity in human NCI-H1975 cells assessed as reduction in cell viability incubated for 24 hrs by CCK8 assay. The following applies: NCI-H1975, 24 h. In kind it is functional, cell-based.
The next test deals with RKO. Put plainly: Cytotoxicity in human RKO cells assessed as reduction in cell viability incubated for 24 hrs by CCK8 assay. In kind it is functional, cell-based.
For the next test, the system named is A549. Put plainly: Cytotoxicity in human A549 cells assessed as reduction in cell viability incubated for 24 hrs by CCK8 assay. In kind it is functional, cell-based. As to conditions: A549, 24 h.
For a further test, the system named is NCI-H1299. Put plainly: Cytotoxicity in human NCI-H1299 cells assessed as reduction in cell viability incubated for 24 hrs by CCK8 assay. In kind it is functional, cell-based. The following applies: NCI-H1299, 24 h.
For test [27], the system named is BXPC-3. In words: Cytotoxicity in human BXPC-3 cells assessed as reduction in cell viability incubated for 24 hrs by CCK8 assay. In kind it is functional, cell-based. As to conditions: BXPC-3, 24 h.

As usually defined, the IC50 is the concentration at which inhibition is half-maximal.

Protein kinase C beta type (Homo sapiens), sequence (P05771 2-671 limits assumed): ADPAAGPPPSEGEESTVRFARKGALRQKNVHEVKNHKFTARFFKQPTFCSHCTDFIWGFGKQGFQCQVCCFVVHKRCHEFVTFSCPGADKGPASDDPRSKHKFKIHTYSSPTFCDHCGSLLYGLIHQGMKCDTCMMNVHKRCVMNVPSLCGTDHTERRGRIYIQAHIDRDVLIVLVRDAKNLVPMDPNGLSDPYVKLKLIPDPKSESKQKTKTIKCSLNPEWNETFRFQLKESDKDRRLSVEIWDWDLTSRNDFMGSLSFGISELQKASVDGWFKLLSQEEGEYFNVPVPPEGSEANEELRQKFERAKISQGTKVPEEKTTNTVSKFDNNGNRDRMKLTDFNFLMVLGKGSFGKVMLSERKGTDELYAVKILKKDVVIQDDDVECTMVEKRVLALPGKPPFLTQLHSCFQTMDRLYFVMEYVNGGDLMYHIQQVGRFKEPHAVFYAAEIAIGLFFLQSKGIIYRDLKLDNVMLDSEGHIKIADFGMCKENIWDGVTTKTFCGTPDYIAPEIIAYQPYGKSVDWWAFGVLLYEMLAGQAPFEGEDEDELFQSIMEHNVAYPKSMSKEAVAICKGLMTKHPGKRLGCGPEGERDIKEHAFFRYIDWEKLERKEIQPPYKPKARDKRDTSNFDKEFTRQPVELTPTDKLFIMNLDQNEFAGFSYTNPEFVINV
Inhibitor of nuclear factor kappa-B kinase subunit beta (Homo sapiens), sequence (O14920 whole entry): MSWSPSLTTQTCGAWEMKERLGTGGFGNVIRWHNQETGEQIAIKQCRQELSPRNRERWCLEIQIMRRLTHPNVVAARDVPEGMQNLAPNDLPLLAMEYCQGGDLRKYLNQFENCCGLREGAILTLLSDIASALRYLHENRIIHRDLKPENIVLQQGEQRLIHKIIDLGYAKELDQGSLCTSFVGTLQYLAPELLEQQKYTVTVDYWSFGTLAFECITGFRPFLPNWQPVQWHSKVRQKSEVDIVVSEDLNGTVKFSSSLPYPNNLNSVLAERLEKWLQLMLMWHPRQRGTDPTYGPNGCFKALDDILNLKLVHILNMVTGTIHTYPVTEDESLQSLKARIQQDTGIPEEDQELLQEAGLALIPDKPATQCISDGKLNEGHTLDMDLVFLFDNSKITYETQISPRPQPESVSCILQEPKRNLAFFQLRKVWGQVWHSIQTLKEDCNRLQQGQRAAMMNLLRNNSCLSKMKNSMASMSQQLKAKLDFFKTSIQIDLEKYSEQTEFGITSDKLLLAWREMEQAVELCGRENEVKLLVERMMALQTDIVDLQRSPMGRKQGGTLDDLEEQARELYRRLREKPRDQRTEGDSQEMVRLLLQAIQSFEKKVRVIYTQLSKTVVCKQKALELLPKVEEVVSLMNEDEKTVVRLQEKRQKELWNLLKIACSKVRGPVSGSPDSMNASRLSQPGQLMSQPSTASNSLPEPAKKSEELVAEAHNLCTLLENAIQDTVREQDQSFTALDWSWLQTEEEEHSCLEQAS
Protein kinase C theta type, sequence (Q04759 whole entry, looked up): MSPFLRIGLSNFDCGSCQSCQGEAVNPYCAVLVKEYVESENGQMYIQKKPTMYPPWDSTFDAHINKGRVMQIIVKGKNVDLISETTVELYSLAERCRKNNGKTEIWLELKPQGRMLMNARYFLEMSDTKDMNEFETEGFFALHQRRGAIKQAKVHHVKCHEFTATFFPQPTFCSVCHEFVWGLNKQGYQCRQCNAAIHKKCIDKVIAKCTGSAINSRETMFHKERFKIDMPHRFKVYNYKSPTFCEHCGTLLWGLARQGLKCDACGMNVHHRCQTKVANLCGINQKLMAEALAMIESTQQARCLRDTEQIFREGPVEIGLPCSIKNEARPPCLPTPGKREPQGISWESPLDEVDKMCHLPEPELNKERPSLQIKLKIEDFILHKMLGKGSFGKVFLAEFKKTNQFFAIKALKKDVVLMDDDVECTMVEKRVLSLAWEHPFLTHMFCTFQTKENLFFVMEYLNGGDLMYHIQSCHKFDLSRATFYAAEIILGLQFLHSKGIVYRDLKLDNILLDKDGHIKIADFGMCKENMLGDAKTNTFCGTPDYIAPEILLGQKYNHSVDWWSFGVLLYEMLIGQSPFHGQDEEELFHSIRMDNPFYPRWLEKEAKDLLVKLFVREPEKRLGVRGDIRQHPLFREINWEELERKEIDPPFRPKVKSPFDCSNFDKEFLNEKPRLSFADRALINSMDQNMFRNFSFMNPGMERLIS
Protein kinase C iota type (Homo sapiens), sequence (P41743 whole entry): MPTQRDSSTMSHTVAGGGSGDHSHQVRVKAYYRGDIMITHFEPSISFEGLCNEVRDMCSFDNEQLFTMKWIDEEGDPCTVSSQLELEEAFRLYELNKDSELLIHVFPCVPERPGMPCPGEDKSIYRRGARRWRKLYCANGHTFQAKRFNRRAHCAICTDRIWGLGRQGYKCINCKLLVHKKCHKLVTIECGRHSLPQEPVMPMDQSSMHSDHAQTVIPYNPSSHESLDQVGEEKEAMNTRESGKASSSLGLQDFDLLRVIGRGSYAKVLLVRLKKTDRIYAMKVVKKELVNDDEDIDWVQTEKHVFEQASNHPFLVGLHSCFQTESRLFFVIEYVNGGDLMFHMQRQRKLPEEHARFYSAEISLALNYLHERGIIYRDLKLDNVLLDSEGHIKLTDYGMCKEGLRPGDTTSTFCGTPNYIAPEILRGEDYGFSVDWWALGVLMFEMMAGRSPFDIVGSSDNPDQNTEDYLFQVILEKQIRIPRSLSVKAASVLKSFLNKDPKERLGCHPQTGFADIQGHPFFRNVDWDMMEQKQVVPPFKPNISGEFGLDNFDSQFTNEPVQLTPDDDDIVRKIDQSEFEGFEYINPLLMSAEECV
Protein kinase C iota type/zeta type (Homo sapiens), sequence (P41743 whole entry, looked up): as the sequence (P41743 whole entry) above
Protein kinase C iota type/zeta type (Homo sapiens), sequence (Q05513 whole entry, looked up): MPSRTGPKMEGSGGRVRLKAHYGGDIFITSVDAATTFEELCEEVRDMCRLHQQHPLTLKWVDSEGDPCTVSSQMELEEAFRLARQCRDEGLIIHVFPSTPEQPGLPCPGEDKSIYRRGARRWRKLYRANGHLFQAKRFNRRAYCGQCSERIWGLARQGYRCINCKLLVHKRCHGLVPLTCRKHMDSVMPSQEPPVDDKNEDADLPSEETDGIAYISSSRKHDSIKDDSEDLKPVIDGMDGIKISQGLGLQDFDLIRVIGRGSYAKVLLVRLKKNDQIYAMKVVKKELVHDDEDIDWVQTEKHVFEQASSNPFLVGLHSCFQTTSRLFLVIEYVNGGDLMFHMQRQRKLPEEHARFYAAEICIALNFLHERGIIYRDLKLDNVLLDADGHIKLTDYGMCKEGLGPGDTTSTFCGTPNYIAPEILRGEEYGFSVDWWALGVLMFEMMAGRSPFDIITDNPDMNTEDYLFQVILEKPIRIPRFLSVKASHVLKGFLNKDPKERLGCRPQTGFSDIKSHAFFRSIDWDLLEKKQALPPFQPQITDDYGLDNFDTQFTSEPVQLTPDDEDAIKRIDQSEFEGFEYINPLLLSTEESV
NF-kappa-B inhibitor alpha (Homo sapiens), sequence (P25963 whole entry): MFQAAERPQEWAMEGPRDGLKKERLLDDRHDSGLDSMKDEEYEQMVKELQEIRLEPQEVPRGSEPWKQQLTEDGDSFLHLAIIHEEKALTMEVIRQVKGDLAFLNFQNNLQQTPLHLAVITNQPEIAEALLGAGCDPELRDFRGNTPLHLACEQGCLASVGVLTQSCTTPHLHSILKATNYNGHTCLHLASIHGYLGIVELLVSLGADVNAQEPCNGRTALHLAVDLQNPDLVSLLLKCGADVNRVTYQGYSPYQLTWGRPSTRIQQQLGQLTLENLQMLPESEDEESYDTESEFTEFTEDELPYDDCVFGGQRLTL
Transcription factor p65 (Homo sapiens), sequence (Q04206 whole entry): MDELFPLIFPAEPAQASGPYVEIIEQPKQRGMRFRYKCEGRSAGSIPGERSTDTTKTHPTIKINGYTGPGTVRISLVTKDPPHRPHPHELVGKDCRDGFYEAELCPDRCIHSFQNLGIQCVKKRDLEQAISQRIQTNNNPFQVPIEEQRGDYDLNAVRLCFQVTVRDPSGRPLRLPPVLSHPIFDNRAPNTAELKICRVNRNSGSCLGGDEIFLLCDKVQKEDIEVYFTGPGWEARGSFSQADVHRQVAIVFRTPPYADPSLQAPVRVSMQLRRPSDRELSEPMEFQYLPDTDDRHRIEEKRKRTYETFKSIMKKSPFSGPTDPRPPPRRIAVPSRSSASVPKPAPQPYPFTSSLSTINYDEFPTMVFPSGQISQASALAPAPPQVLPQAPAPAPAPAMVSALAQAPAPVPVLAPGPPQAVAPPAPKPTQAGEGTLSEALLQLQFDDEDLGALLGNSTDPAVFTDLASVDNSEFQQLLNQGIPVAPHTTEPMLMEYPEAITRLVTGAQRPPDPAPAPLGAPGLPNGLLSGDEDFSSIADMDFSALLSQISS
Protein kinase C delta type, sequence (Q05655 whole entry, looked up): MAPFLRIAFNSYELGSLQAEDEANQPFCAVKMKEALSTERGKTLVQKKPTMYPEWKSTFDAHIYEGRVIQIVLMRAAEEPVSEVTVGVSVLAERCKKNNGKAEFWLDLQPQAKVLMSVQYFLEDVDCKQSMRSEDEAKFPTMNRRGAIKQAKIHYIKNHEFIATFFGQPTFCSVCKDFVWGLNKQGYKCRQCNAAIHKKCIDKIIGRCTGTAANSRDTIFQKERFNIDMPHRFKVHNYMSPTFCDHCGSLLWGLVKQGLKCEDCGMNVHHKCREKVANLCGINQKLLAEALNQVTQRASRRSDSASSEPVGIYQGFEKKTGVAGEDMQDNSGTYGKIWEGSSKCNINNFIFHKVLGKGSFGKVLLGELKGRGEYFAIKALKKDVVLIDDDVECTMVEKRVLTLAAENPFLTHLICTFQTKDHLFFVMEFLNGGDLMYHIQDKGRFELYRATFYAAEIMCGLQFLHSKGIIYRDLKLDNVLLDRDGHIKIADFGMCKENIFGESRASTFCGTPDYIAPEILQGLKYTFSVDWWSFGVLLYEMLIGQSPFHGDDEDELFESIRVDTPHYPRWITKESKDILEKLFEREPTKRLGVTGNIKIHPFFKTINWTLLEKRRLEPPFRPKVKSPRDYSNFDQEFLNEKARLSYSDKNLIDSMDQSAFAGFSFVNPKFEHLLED
Protein kinase C zeta type (Homo sapiens), sequence (Q05513 whole entry): as the sequence (Q05513 whole entry, looked up) above

Turning to `CN[C@@H]1C[C@H]2O[C@@](C)([C@@H]1OC)n1c3ccccc3c3c4c(c5c6ccccc6n2c5c31)C(=O)NC4=O` (stereo in doubt; 15), the outcome in the test with BXPC-3 [1], with BXPC-3 [3], in the test on BXPC-3 [5], in the test with BXPC-3 [6], in the test on BXPC-3 [10] and in the test on BXPC-3 [11] was Active. For the same compound, the result in the test on BXPC-3 [20] and in the test on BXPC-3 [21] was Active. For the same compound, the inhibition entry in test [2], in [8], in test [16], in test [18], in [22] and in test [26] was “Active” throughout. The inhibition result in test [4], in test [9], in test [12], in test [13], in test [15] and in test [24] was “inactive” throughout. The inhibition result in [25] was “inactive”. The Activity entry in the test with BXPC-3 [7], in the test with BXPC-3 [14], in the test with BXPC-3 [17], in the test with BXPC-3 [19] and in the test with BXPC-3 [23] was “Dose-dependent effect” in each case.

Turning to `CN1CCN(c2nc(C3=C(c4c[nH]c5ccccc45)C(=O)NC3=O)c3ccccc3n2)CC1` [SOTRASTAURIN], the IC50 in the test on PC-9, with MGC-803, in the test with ASPC1, in the test with NCI-H1975, in the test on RKO and with A549 was greater than 3.2 µM in each case. Besides, the IC50 in the test on NCI-H1299 and in the test on BXPC-3 [27] was greater than 3.2 µM in each case.
